In patent US8426447B2, “Spiro-tricyclic ring compounds as beta-secretase modulators and methods of use” (Amgen Inc., priority 2008, dated 2013):
pIC50: −log10 of the molar value.

Experiments:
[1] = target: T1, BACE1 (Homo sapiens, UniProt P56817); test: In Vitro Enzymatic BACE FRET (Fluorescence Resonance Energy Transfer) Assay; type: biochemical
Experimental: In Vitro Enzymatic BACE FRET (Fluorescence Resonance Energy Transfer) Assay (Enzyme Assay Data in the Example Tables I, II, III & IV) The assay buffer used in this screen is 0.05 M acetate, pH 4.2, 10% DMSO final, 100 uM genapol (which is a nonionic detergent, below its Critical Micelle Concentration). […] This assay is effectively started by the addition of FRET substrate (50 nM) and the combination is incubated for one hour. The FRET assay is terminated with by addition of Tris buffer, which raises the pH to neutrality, and the fluorescence is determined. The FRET substrate is a peptide with commercially available fluorophore and quencher, on opposite sides of the BACE cleavage site. […]

[2] = target: T1, BACE1; test: In Vitro BACE Cell-based Assay (HEK cell assay): Aβ40 in conditioned medium of cells stably expressing Amyloid Precursor Protein, sandwich ELISA
Experimental: In Vitro BACE Cell-based Assay
The cell-based assay measures inhibition or reduction of Aβ40 in conditioned medium of test compound treated cells expressing amyloid precursor protein.
Cells stably expressing Amyloid Precursor Protein (APP) were plated at a density of 40K cells/well in 96 well plates (Costar). The cells were cultivated for 24 hours at 37° C. and 5% CO2 in DMEM supplemented with 10% FBS. The test compounds were then added to cells in 10-point dose response concentrations with the starting concentration being either 100 μM or 10 μM. The compounds were diluted from stock solutions in DMSO and the final DMSO concentration of the test compounds on cells was 0.1%. After 24 h of incubation with the test compounds the supernatant conditioned media was collected and the Aβ 40 levels were determined using a sandwich ELISA. The IC50 of the compound was calculated from the percent of control or percent inhibition of Aβ 40 as a function of the concentration of the test compound.
The sandwich ELISA to detect Aβ 40 was performed in 96 well microtiter plates, which were pre-treated with goat anti-rabbit IgG (Pierce). The capture and detecting antibody pair that were used to detect Aβ 40 from cell supernatants were affinity purified pAb40 (Biosource) and biotinylated 6E10 (Signet Labs Inc.), respectively. The optimal concentration for the pAb40 antibody was 3 μg/ml in Superblock/TBS (Pierce) that was supplemented with 0.05% Tween 20 (Sigma).
Cellular supernatants were incubated with the capture antibody for 3 h at 4° C., followed by 3 wash steps in TBS-tween (0.05%). The detecting antibody incubation was for 2 h at 4° C., again followed by the wash steps as described previously. The final readout of the ELISA is Time-Resolved Fluorescence (counts per minute) using Delfia reagents Streptavidin-Europium and Enhancement solutions (Perkin Elmer) and the Victor 2 multilabel counter (Perkin Elmer).

[3] = Table IV, class symbols, read-out: BACE1 FRET assay
[4] = Table IV, class symbols, read-out: HEK cell assay
[5] = Table III, IC50's in uM ranges, read-out: BACE1 FRET assay
[6] = Table III, IC50's in uM ranges, read-out: HEK cell assay
[7] = in vitro BACE FRET enzyme assay, IC50 class symbols, read-out: BACE1 FRET assay
[8] = HEK cell-based assay, Aβ40 in conditioned medium, IC50 class symbols, read-out: HEK cell assay
[9] = HEK cells, read-out: HEK cell assay

T1 sequence (P56817 46-501, species assumed): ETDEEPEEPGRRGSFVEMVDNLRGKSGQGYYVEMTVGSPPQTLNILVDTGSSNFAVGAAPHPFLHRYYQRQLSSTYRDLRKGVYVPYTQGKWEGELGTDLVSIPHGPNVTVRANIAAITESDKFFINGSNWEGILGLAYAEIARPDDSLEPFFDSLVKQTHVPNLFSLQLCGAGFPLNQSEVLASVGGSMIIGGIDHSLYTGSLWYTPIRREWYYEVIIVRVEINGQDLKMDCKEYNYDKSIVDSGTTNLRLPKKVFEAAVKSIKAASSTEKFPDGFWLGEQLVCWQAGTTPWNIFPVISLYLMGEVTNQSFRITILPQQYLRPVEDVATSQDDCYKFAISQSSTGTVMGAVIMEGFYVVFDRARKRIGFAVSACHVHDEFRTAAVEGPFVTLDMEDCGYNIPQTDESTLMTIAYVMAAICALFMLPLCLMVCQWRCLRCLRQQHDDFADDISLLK

| SMILES | pIC50 [1, 3] | pIC50 [2, 4] | pIC50 ([1]; read-out: BACE1 FRET assay) | other results |
| --- | --- | --- | --- | --- |
| NC1=N[C@]2(CO1)c1cc(-c3cncnc3)ccc1Oc1c(F)cccc12 [compound 552] | < 5.30 | < 5.30 | – | – |
| NC1=N[C@@]2(CO1)c1cc(Br)ccc1Oc1ccc(C#CC3(O)COC3)cc12 [compound 682] | – | – | 5.30 to 6.00 | pIC50 ([2]; read-out: HEK cell assay): < 5.30 |
| CC(C)(C)COc1ccc2c(c1)[C@@]1(COC(N)=N1)c1cc(-c3csc(C(F)F)c3)ccc1O2 [compound 783] | – | – | > 7.00 | pIC50 ([2]; read-out: HEK cell assay): 5.30 to 6.00 |
| COC(=O)/C=C/c1ccc2c(c1)[C@@]1(COC(N)=N1)c1cc(Br)ccc1O2 [compound 950] | – | – | 5.30 to 6.00 | pIC50 ([2]; read-out: HEK cell assay): < 5.30 |
| NC1=N[C@]2(CO1)c1cc(CCC3(O)CCC3)ccc1Oc1ccc(-c3cncnc3)cc12 [compound 797] | > 7.00 | > 7.00 | – | – |
| CC(C)C(C)(O)COc1ccc2c(c1)[C@]1(COC(N)=N1)c1cc(-c3cccnc3)ccc1O2 (stereo partly shown) [compound 867] | > 7.00 | > 7.00 | – | – |
| CC(C)(C)COc1ccc2c(c1)[C@@]1(COC(N)=N1)c1cc(-c3ncccn3)ccc1O2 [compound 186] | – | – | – | IC50 [1, 5]: < 0.1 µM; IC50 [2, 6]: < 0.1 µM |
| NC1=N[C@]2(CO1)c1cc(Br)ccc1Oc1c(F)cccc12 [compound 559] | < 5.30 | < 5.30 | – | – |
| CC(C)(C)/C=C/c1cnc2c(c1)[C@]1(COC(N)=N1)c1cc(-c3cccnc3F)ccc1O2 [compound 380] | – | – | – | pIC50 [1, 7]: > 7.00; pIC50 [2, 8]: > 7.00 |
| CC(C)(F)COc1cnc2c(c1)[C@]1(COC(N)=N1)c1cc(-c3ccc(F)nc3)ccc1O2 [compound 451] | – | – | > 7.00 | pIC50 [2, 9]: > 7.00 |
| CC(C)(C)C#Cc1cc2c(cn1)Oc1ccc(-c3cccnc3)cc1[C@@]21COC(N)=N1 [compound 845] | > 7.00 | > 7.00 | – | – |
| CC(C)(C)COc1ccc2c(c1)[C@@]1(COC(N)=N1)c1cc(-c3cncnc3)cc(F)c1O2 [155a] | – | – | – | IC50 [1, 5]: < 0.1 µM; IC50 [2, 6]: 0.1 to 1 µM |
| CC(C)(C)COc1cnc2c(c1)[C@]1(COC(N)=N1)c1cc(-c3ccc(F)nc3)ccc1O2 [compound 470] | – | – | > 7.00 | pIC50 [2, 9]: > 7.00 |
| CC(C)(C)COc1ccc2c(n1)[C@]1(COC(N)=N1)c1cc(Br)ccc1O2 [compound 735] | – | – | 5.30 to 6.00 | pIC50 ([2]; read-out: HEK cell assay): 5.30 to 6.00 |
| CC(C)(C)C#Cc1ccc2c(c1)[C@]1(COC(N)=N1)c1cc(C3=CCOCC3)ncc1O2 [compound 800] | 6.00 to 7.00 | 5.30 to 6.00 | – | – |
| NC1=N[C@@]2(CO1)c1cc(Br)ccc1Oc1ccc(C#CC3(O)CCC3)cc12 [compound 957] | – | – | 5.30 to 6.00 | pIC50 ([2]; read-out: HEK cell assay): < 5.30 |
| CC1(COc2cnc3c(c2)[C@]2(COC(N)=N2)c2cc(-c4c(F)cccc4F)ccc2O3)COC1 [compound 411] | – | – | – | pIC50 [1, 7]: > 7.00; pIC50 [2, 8]: > 7.00 |
| CC1(COc2ccc3c(c2)[C@]2(COC(N)=N2)c2cc(-c4cncnc4)cc(F)c2O3)COC1 [compound 796] | > 7.00 | 6.00 to 7.00 | – | – |
| Cc1ccc(-n2ccc3c(c2=O)[C@@]2(COC(N)=N2)c2cc(-c4cccnc4)ccc2O3)cc1 [compound 566] | 6.00 to 7.00 | 6.00 to 7.00 | – | – |
| CC(=O)c1cccc(-c2ccc3c(c2)[C@]2(COC(N)=N2)c2cc(-c4cncnc4)ccc2O3)c1 [compound 889] | > 7.00 | > 7.00 | – | – |
| NC1=N[C@@]2(CO1)c1cc(-c3cncnc3)ccc1Oc1ccc(N3CC(F)(F)C3)cc12 [compound 508] | – | – | > 7.00 | pIC50 [2, 9]: > 7.00 |

| SMILES | pIC50 [1, 3] | pIC50 [2, 4] | pIC50 ([1]; read-out: BACE1 FRET assay) | other results |
| --- | --- | --- | --- | --- |
| CC(C)(C)OCCOc1ccc2c(c1)[C@]1(COC(N)=N1)c1cc(-c3cccnc3)ccc1O2 [compound 159] | – | – | – | IC50 [1, 5]: < 0.1 µM; IC50 [2, 6]: 0.1 to 1 µM |
| COC(C)(C)CCc1ccc2c(c1)C1(COC(N)=N1)c1cc(-c3cccnc3)cnc1O2 (racemic) [Example 110, rac-7-(3-methoxy-3-methylbutyl)-3-(3-pyridinyl)spiro[chromeno[2,3-b]pyridine-5,4′-[1,3]oxazol]-2′-amine] | – | – | – | IC50 [1, 5]: < 0.1 µM; IC50 [2, 6]: 0.1 to 1 µM |
| NC1=N[C@@]2(CO1)c1cc(-c3cccc(Cl)c3)ccc1Oc1cnc(C3=CCOCC3)cc12 [compound 427, (5S)-7-(3-chlorophenyl)-3-(3,6-dihydro-2H-pyran-4-yl)spiro[chromeno[2,3-c]pyridine-5,4′-[1,3]oxazol]-2′-amine] | – | – | > 7.00 | pIC50 [2, 9]: > 7.00 |
| NC1=N[C@@]2(CO1)c1cc(-c3cccnc3F)ccc1Oc1cnc(-c3ccncc3)cc12 [Example 515, (5S)-7-(2-fluoro-3-pyridinyl)-3-(4-pyridinyl)spiro[chromeno[2,3-c]pyridine-5,4′-[1,3]oxazol]-2′-amine] | – | – | – | IC50 ([1]; BACE1 FRET assay (uM)): < 0.1 µM; IC50 ([2]; HEK cell assay (uM), HEK cells): < 0.1 µM |
| COC(=O)/C=C/c1ccc2c(c1)[C@@]1(COC(N)=N1)c1cc(-c3cccnc3)ccc1O2 [compound 918] | 6.00 to 7.00 | 6.00 to 7.00 | – | – |
| COC(C)(C)C#Cc1cc(F)c2c(c1)[C@]1(COC(N)=N1)c1cc(-c3ccc(F)nc3)ccc1O2 [compound 646] | > 7.00 | > 7.00 | – | – |
| CC(C)(C)COc1ccc2c(c1)[C@]1(COC(N)=N1)c1cc(-c3cccc(S(C)(=O)=O)c3)ccc1O2 [compound 915] | > 7.00 | 5.30 to 6.00 | – | – |
| CC(C)(C)/C=C/c1ccc2c(n1)[C@]1(COC(N)=N1)c1cc(-c3cccnc3)ccc1O2 [compound 398] | – | – | – | pIC50 [1, 7]: > 7.00; pIC50 [2, 8]: > 7.00 |
| NC1=N[C@]2(CO1)c1cc(-c3cccnc3)ccc1Oc1ccc(-c3cncnc3)cc12 [Example 124, (R)-2′-(pyridin-3-yl)-7′-(pyrimidin-5-yl)-5H-spiro[oxazole-4,9′-xanthen]-2-amine] | – | – | – | IC50 [1, 5]: < 0.1 µM; IC50 [2, 6]: < 0.1 µM |
| CC(C)(C)CC(=O)c1ccc2c(c1)[C@@]1(COC(N)=N1)c1cc(-c3ccc(F)nc3)ccc1O2 [150b] | – | – | – | IC50 [1, 5]: < 0.1 µM; IC50 [2, 6]: 0.1 to 1 µM |
| CC(C)(O)Cc1ccc2c(c1)[C@]1(COC(N)=N1)c1cc(-c3cccnc3)ccc1O2 [compound 659] | 6.00 to 7.00 | 6.00 to 7.00 | – | – |
| CC(C)(C)COc1ccc2c(c1)[C@@]1(COC(N)=N1)c1cc(-c3cncc(F)c3)cnc1O2 [compound 753] | – | – | > 7.00 | pIC50 ([2]; read-out: HEK cell assay): > 7.00 |
| CC(C)(O)C#Cc1ccc2c(c1)[C@@]1(COC(N)=N1)c1cc(C#CC(C)(C)O)cnc1O2 [compound 935] | – | – | 6.00 to 7.00 | pIC50 ([2]; read-out: HEK cell assay): 6.00 to 7.00 |
| CN(C)c1ncc(-c2ccc3c(c2)[C@]2(COC(N)=N2)c2cc(OCC(C)(C)C)ccc2O3)cn1 [compound 780] | – | – | 6.00 to 7.00 | pIC50 ([2]; read-out: HEK cell assay): 5.30 to 6.00 |
| COC(=O)/C=C/c1ccc2c(c1)[C@@]1(COC(N)=N1)c1cc(Br)ccc1O2 [compound 169] | – | – | – | IC50 [1, 5]: 1 to 5 µM; IC50 [2, 6]: > 5 µM |
| Cc1noc(C)c1-c1ccc2c(c1)[C@]1(COC(N)=N1)c1cc(-c3cccnc3)ccc1O2 [compound 704] | – | – | 6.00 to 7.00 | pIC50 ([2]; read-out: HEK cell assay): 6.00 to 7.00 |
| CC(C)(C)COc1cnc2c(c1)[C@]1(COC(N)=N1)c1cc(-c3cccc(C#N)c3)ccc1O2 [compound 358] | – | – | – | pIC50 [1, 7]: > 7.00; pIC50 [2, 8]: > 7.00 |
| CN(C)C(=O)/C=C/c1ccc2c(c1)[C@]1(COC(N)=N1)c1cc(-c3cncnc3)ccc1O2 [compound 917] | > 7.00 | 6.00 to 7.00 | – | – |
| NC1=N[C@]2(CO1)c1cc(C3=CCOCC3)ccc1Oc1cnc(Cl)cc12 [compound 499] | – | – | 5.30 to 6.00 | pIC50 [2, 9]: < 5.30 |
| Cc1ccncc1-c1ccc2c(c1)[C@@]1(COC(N)=N1)c1cc(OCC(C)(C)C)ccc1O2 [Example 86, (4S)-2′-(2,2-dimethylpropoxy)-7′-(4-methyl-3-pyridinyl)spiro[1,3-oxazole-4,9′-xanthen]-2-amine] | – | – | – | pIC50 ([1]; Table II, read-out: BACE1 FRET assay): > 7.00; pIC50 ([2]; Table II, Aβ40, 24 h incubation, read-out: HEK cell assay): 6.00 to 7.00 |
